Reference: patent publication US8889714B2, “3,4-substituted piperidine derivatives as renin inhibitors” (Actelion Pharmaceuticals Ltd., priority 2008, dated 2014)

What was measured:
Human recombinant renin = target: T1, Human recombinant renin (Homo sapiens, UniProt P00797); assay: Inhibition of human recombinant renin (buffer); assay type: biochemical; details: 100 pM renin, 50 mM MOPS pH 7.4, 37° C., 3 hours; read-out: Human Renin IC50 (buffer)
T1 construct: purchased Proteos
T1 sequence (P00797 67-406): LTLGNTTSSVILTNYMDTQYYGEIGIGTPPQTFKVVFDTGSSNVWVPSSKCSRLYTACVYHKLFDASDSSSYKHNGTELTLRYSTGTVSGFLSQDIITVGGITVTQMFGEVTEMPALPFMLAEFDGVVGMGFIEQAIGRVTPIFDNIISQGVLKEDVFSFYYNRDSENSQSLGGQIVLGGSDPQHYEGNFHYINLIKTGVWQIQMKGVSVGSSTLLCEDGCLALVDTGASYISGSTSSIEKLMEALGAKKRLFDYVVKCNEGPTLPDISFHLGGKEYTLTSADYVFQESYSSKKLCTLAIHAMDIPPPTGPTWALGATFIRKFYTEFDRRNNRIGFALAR
Description: Fluorescence is measured at times 0 and 3 hours with a SpectraMax Gemini EM reader set at an excitation wavelength of 328 nm and at an emission wavelength of 388 nm. Background fluorescence at t=0 is subtracted from the measurement at t=3 hours. Inhibitory activity of the compounds is expressed as IC50.

[1] = target: T2, recombinant renin in human plasma (Homo sapiens, UniProt P00797); assay: Inhibition of renin in human plasma; assay type: biochemical; details: human EDTA plasma, 1 nM recombinant renin added, 37° C., 1 hour; read-out: Human Renin IC50 (plasma)
T2 construct: purchased Proteos
T2 sequence (P00797 67-406): T1 sequence (P00797 67-406)
Description: Human EDTA-collected plasma is rapidly thawed in warm water and centrifuged at 2900 g for 15 minutes at 4° C. The supernatant is collected and recombinant renin (Proteos) is added at a final concentration of 1 nM. […] The plate is incubated at 37° C. for 1 hour. […] Background fluorescence at t=0 is subtracted from the measurement at t=1 hour. Inhibitory activity of the compounds is expressed as IC50.

Row | SMILES | IC50 (Human recombinant renin) [nM] | IC50 [1] [nM]
1 | COCCCn1cc(CN(C(=O)[C@@H]2CNCC[C@H]2c2ccn(C)c(=O)c2)C2CC2)c(=O)n(CCCOC)c1=O (relative stereo) [Example 79, trans-N-({1,3-Bis[3-(methyloxy)propyl]-2,4-dioxo-1,2,3,4-tetrahydro-5-pyrimidinyl}methyl)-N-cyclopropyl-4-(1-methyl-2-oxo-1,2-dihydro-4-pyridinyl)-3-piperidinecarboxamide] | 58 | 75
2 | COCCCc1cc(CN(C(=O)[C@@H]2CNCC[C@H]2c2ccn(C)c(=O)c2)C2CC2)c2ccccc2n1 (relative stereo) [Example 25, trans-N-Cyclopropyl-4-(1-methyl-2-oxo-1,2-dihydro-4-pyridinyl)-N-({2-[3-(methyloxy)propyl]-4-quinolinyl}methyl)-3-piperidinecarboxamide] | 1.4 | 3
3 | CCn1ccc([C@@H]2CCNC[C@H]2C(=O)N(Cc2cc(CCCOC)cc(OCCOC)c2)C2CC2)cc1=O (relative stereo) [Example 12, trans-N-Cyclopropyl-4-(1-ethyl-2-oxo-1,2-dihydro-4-pyridinyl)-N-({3-{[2-(methyloxy)ethyl]oxy}-5-[3-(methyloxy)propyl]phenyl}methyl)-3-piperidinecarboxamide] | 200 | 460
4 | COCCCc1cc(CN(C(=O)[C@H]2CNCC[C@@H]2c2ccn(C)c(=O)c2)C2CC2)cc(Br)c1C (relative stereo) [Example 85, trans-N-({3-Bromo-4-methyl-5-[3-(methyloxy)propyl]phenyl}methyl)-N-cyclopropyl-4-(1-methyl-2-oxo-1,2-dihydro-4-pyridinyl)-3-piperidinecarboxamide] | 0.9 | 1.3
5 | COCCCc1cc(CN(C(=O)[C@@H]2CNCC[C@H]2c2ccn(C)c(=O)c2)C2CC2)cc(-c2ccccc2)c1 (relative stereo) [Example 33, trans-N-Cyclopropyl-4-(1-methyl-2-oxo-1,2-dihydro-4-pyridinyl)-N-({5-[3-(methyloxy)propyl]-3-biphenylyl}methyl)-3-piperidinecarboxamide] | 15 | 81
6 | Cn1ccc(C2CCNC[C@@H]2C(=O)N(Cc2cc(CCC#N)cc(Cl)c2Cl)C2CC2)cc1=O (stereo in doubt) [Example 30, trans-N-Cyclopropyl-N-{[2,3-dichloro-5-(2-cyanoethyl)phenyl]methyl}-4-(1-methyl-2-oxo-1,2-dihydro-4-pyridinyl)-3-piperidinecarboxamide] | 8.4 | 17
7 | COCCCc1ccc2c(c1)C(N(C(=O)[C@H]1CNCCC1c1ccn(C)c(=O)c1)C1CC1)CCC2 (single isomer, unassigned) [Example 100 Diastereomer B, trans-N-Cyclopropyl-N-[7-(3-methoxypropyl)-1,2,3,4-tetrahydro-1-naphthalenyl]-4-(1-methyl-2-oxo-1,2-dihydro-4-pyridinyl)-3-piperidinecarboxamide] | 3.6 | 16.2
8 | COCCCc1cc(CN(C(=O)[C@@H]2CNCC[C@H]2c2cc(=O)n(C)c(C)c2C)C2CC2)cc(OCCOC)c1 (relative stereo) [Example 13, trans-N-Cyclopropyl-N-({3-{[2-(methyloxy)ethyl]oxy}-5-[3-(methyloxy)propyl]phenyl}methyl)-4-(1,5,6-trimethyl-2-oxo-1,2-dihydro-4-pyridinyl)-3-piperidinecarboxamide] | 25 | 80
9 | COCCc1ccc(Cl)c(CN(C(=O)[C@H]2CNCC[C@]2(OC)c2ccn(C)c(=O)c2)C2CC2)c1 (relative stereo) [Example 109] | 1.3 | 3.2
10 | COCCCn1cc(CN(C(=O)[C@@H]2CNCC[C@H]2c2ccn(C)c(=O)c2)C2CC2)c2c(F)cccc21 (relative stereo) [Example 69, trans-N-Cyclopropyl-N-({4-fluoro-1-[3-(methyloxy)propyl]-1H-indol-3-yl}methyl)-4-(1-methyl-2-oxo-1,2-dihydro-4-pyridinyl)-3-piperidinecarboxamide] | 0.3 | 0.9
11 | Cn1ccc([C@@H]2CCNC[C@H]2C(=O)N(Cc2c[nH]c3cccc(F)c23)C2CC2)cc1=O (relative stereo) [Example 75, trans-N-Cyclopropyl-N-[(4-fluoro-1H-indol-3-yl)methyl]-4-(1-methyl-2-oxo-1,2-dihydro-4-pyridinyl)-3-piperidinecarboxamide] | 12.7 | 8.4

The remaining lines, values ahead:

Row | IC50 (Human recombinant renin) [nM] | IC50 [1] [nM] | SMILES
12 | 0.3 | 1.2 | COCCCc1ccc2c(c1)C(N(C(=O)[C@H]1CNCCC1c1ccn(C)c(=O)c1)C1CC1)CCC2 (single isomer, unassigned) [Example 100 Diastereomer A, trans-N-Cyclopropyl-N-[7-(3-methoxypropyl)-1,2,3,4-tetrahydro-1-naphthalenyl]-4-(1-methyl-2-oxo-1,2-dihydro-4-pyridinyl)-3-piperidinecarboxamide]
13 | 0.3 | 1.4 | Cc1c(Br)cc(CN(C(=O)[C@@H]2CNCC[C@H]2c2ccn(C)c(=O)c2)C2CC2)cc1CCCOC(F)F (relative stereo) [Example 103, trans-N-{3-Bromo-5-[3-(difluoromethoxy)propyl]-4-methylbenzyl}-N-cyclopropyl-4-(1-methyl-2-oxo-1,2-dihydro-4-pyridinyl)-3-piperidinecarboxamide]
14 | 0.06 | 0.6 | Cn1ccc([C@@H]2CCNC[C@H]2C(=O)N(Cc2cn(Cc3cccc(F)c3)c3cccc(F)c23)C2CC2)cc1=O (relative stereo) [Example 68, trans-N-Cyclopropyl-N-({4-fluoro-1-[(3-fluorophenyl)methyl]-1H-indol-3-yl]methyl}-4-(1-methyl-2-oxo-1,2-dihydro-4-pyridinyl)-3-piperidinecarboxamide]
15 | 0.2 | 0.5 | Cn1ccc([C@@H]2CCNC[C@H]2C(=O)N(Cc2cn(Cc3ccncc3)c3cccc(F)c23)C2CC2)cc1=O (relative stereo) [Example 77, trans-N-Cyclopropyl-N-{[4-fluoro-1-(4-pyridinylmethyl)-1H-indol-3-yl]methyl}-4-(1-methyl-2-oxo-1,2-dihydro-4-pyridinyl)-3-piperidinecarboxamide]
16 | 0.3 | 1.3 | COCCCc1cc(Cl)c(Cl)c(CN(C(=O)[C@@H]2CNCC[C@H]2c2ccn(C)c(=O)c2)C2CC2)c1 (relative stereo) [Example 5, trans-N-Cyclopropyl-N-({2,3-dichloro-5-[3-(methyloxy)propyl]phenyl}methyl)-4-(1-methyl-2-oxo-1,2-dihydro-4-pyridinyl)-3-piperidinecarboxamide]
17 | < 0.06 | 0.5 | Cn1ccc([C@@H]2CCNC[C@H]2C(=O)N(Cc2cn(Cc3cccc(F)c3)c3cccc(Br)c23)C2CC2)cc1=O (relative stereo) [Example 73, trans-N-({4-Bromo-1-[(3-fluorophenyl)methyl]-1H-indol-3-yl}methyl)-N-cyclopropyl-4-(1-methyl-2-oxo-1,2-dihydro-4-pyridinyl)-3-piperidinecarboxamide]
18 | 0.2 | 0.5 | COCCCc1cc(CCCOC)c(Cl)c(CN(C(=O)[C@H]2CNCC[C@@H]2c2ccn(C)c(=O)c2)C2CC2)c1 (relative stereo) [Example 89, trans-N-[2-Chloro-3,5-bis(3-methoxypropyl)benzyl]-N-cyclopropyl-4-(1-methyl-2-oxo-1,2-dihydro-4-pyridinyl)-3-piperidinecarboxamide]
